This passage reports Activity, Stabilty and EC50 results from ChEMBL document CHEMBL4680300, “Synthesis, biological evaluation, and NMR studies of 3-fluorinated derivatives of 3',4',5'-trihydroxyflavone and 3',4',5'-trimethoxyflavone” (Bioorg Med Chem Lett, 2021).

Values after ≈ are worked out from the molar mass of the structure shown. Active and inactive are the calls of the source. No cut-off for these calls is given here.

In data set [1] the test system is Neuron. The data set is described as follows: Neuroprotective activity in Sprague-Dawley rat cortical neurons assessed as reduction in glutamate-induced cell death preincubated for 1 hr followed by glutamate stimulation and measured after 24 hrs by MTS assay. It is filed as functional, tissue-based. The following applies: time 25.0 hrs. In general terms: Tetrazolium assays rely on reduction of a dye to a coloured formazan, in cell work by metabolically active cells.

Data set [2] can be described thus: Stability of the compound in DMSO assessed as formation of ortho-quinone intermediate in presence of DPPH measured by mass spectrometry. It is filed as physicochemical. (DPPH is a stable violet radical that fades when it is reduced.)
Data set [3] can be described thus: Antioxidant activity assessed as DPPH radical scavenging activity incubated for 20 mins in dark conditions. It is filed as functional.
Data set [4] is described as follows: Stability of the compound in DMSO assessed as formation of ortho-quinone intermediate in presence of DPPH measured after 20 mins by NMR analysis. Type of data set: physicochemical.
For data set [5], the system named is Neuron. The data set can be described thus: Neuroprotective activity in Sprague-Dawley rat cortical neurons assessed as reduction in glutamate-induced reactive oxygen species level incubated for 1 hr by DCFDA fluorescence-based microplate reader relative to control. It is filed as functional, tissue-based.

For `O=c1c(F)c(-c2cc(O)c(O)c(O)c2)oc2ccccc12`, the result in data set [1] and in data set [5] was Active. For the same compound, the Stabilty entry in data set [2] and in data set [4] was “Unstable” in each case. In data set [3], the concentration for a half-maximal effect (EC50) amounted to 0.24 µg/mL (≈ 0.833 µM).
With `O=C1O[C@H]([C@@H](O)CO)C(O)=C1O` [ASCORBIC ACID], in data set [3], the EC50 came to 0.16 µg/mL (≈ 0.908 µM).
As to `COc1cc(-c2cc(=O)c3ccccc3o2)cc(OC)c1OC`, the EC50 in data set [3] stood at 71.66 µg/mL (≈ 229 µM).
`COc1cc(-c2oc3ccccc3c(=O)c2F)cc(OC)c1OC`: the EC50 in data set [3] is 37.14 µg/mL (≈ 112 µM).
As to `C[C@]12N[C@H](Cc3ccccc31)c1ccccc12`, the outcome in data set [1] was Active.
As for `O=c1cc(-c2cc(O)c(O)c(O)c2)oc2ccccc12`, in data set [1], the result was Active. For the same compound, in data set [3], the concentration giving a half-maximal response (EC50) was found to be 0.33 µg/mL (≈ 1.22 µM).

The EC50 is the concentration that produces a half-maximal response.
